From patent US20160166604A1, “Thiol-Sensitive Positive Inotropes” (priority 2005, published 2016)

Columns and labels:
[1] = End-diastolic pressure-volume relationship (EDPVR) in chronically instrumented dogs with pacing-induced cardiac failure; assay type: in vivo; settings: CHF dog preparations
Method: Adult male mongrel dogs (22-25 kg) were chronically instrumented for pressure-dimension analysis as described. See, Paolocci et al., “Positive Inotropic and Lusitropic Effects of HNO/NO− in Failing Hearts: Independence from Beta-Adrenergic Signaling,” Proc. Natl. Acad. Sci. USA., 100, 5537-5542 (2003); and Senzaki et al., Circulation, 101, 1040-1048 (2000). Animals were anesthetized with 1% to 2% halothane after induction with sodium thiopental (10-20 mg/kg, i.v.). The surgical/experimental animal protocol was approved by the Johns Hopkins University Animal Care and Use Committee. […] Cardiac failure was induced by rapid ventricular pacing for 3 weeks as described. See, Paolocci et al., supra, and Senzaki et al., supra.
Hemodynamic data were digitized at 250 Hz. […] These relations strongly correlate with results from pressure-volume data in normal and failing hearts, as previously validated. Cardiovascular function was assessed by stroke dimension, fractional shortening (stroke dimension/end-diastolic dimension [EDD]), estimated cardiac output (stroke dimension×HR), peak rate of pressure rise (dP/dtmax), end-systolic elastance (Ees, slope of end-systolic pressure-dimension relation [ESPDR]), the slope of dP/dtmax-EDD relation (DEDD) (see, Little, Circ Res., 56:808-815 (1985)), pre-recruitable stroke work (PRSW), (based on dimension-data), estimated arterial elastance (Ea, end systolic pressure/stroke dimension) and estimated total resistance (RT, […]). Ees, DEDD and PRSW provide load-insensitive contractility measures.
The end-diastolic pressure-volume relationship (EDPVR) was determined applying non-linear regression analysis to the end-diastolic pressure and volume points (Ped and Ved, respectively), according to Kass, Cardiol Clin., 18, 571-86 (2000) (Review).
In order to evaluate the impact of each pharmacological intervention on the EDPVR, changes in end-diastolic pressure from baseline (ΔPed) at volumes providing baseline end-diastolic pressure of […] mmHg EDP (V10, V15, V20, respectively) were determined (FIG. 5).

[2] = molecular target: T1, RyR2 (Mus musculus, UniProt E9Q401); assay: RyR2 single channel recordings in planar lipid bilayers; assay type: biochemical; settings: for open probability of the channel (Po): control 0.16±0.03
T1 construct: endogenous in cells; host or cells: freshly isolated adult mouse cardiac myocytes
Method: Recording of single RyR2 in lipid bilayers was performed as previously described. Jiang, M. T. et al., Circ. Res., 91, 1015-1022 (2002). Briefly, a phospholipid bilayer of PE:PS (1:1 dissolved in n-decane to 20 mg/ml) was formed across an aperture of ˜300 μm diameter in a delrin cup. The cis chamber (900 μl) was the voltage control side connected to the head stage of a 200 A Axopatch amplifier, while the trans chamber (800 μl) was held at virtual ground. Both chambers were initially filled with 50 mM cesium methanesulfonate and 10 mM Tris/Hepes pH 7.2. After bilayer formation, cesium methanesulfonate was raised to 300 mM in the cis side and 100 to 200 μg of mouse cardiac SR vesicles was added. After detection of channel openings, Cs^+ in the trans chamber was raised to 300 mM to collapse the chemical gradient. Single channel data were collected at steady voltages (−30 mV) for 2-5 min. Channel activity was recorded with a 16-bit VCR-based acquisition and storage system at a 10 kHz sampling rate. Signals were analyzed after filtering with an 8-pole Bessel filter at a sampling frequency of 1.5-2 kHz. Data acquisition and analysis were done with Axon Instruments software and hardware (pClamp v8.0, Digidata 200 AD/DA interface).
To further test whether HNO directly interacted with RyR2 proteins to increase open probability, purified reconstituted RyR2 were expressed in planar lipid bilayers and steady-state activity recorded with or without AS. The cis (cytosolic) solution contained 10 μM activating Ca^2+ and recordings were made at positive 30 mV holding potential. […] The probability of the channel being open (Po) increased from an average 0.16±0.03 without AS to 0.46±0.07 at 0.3 mM AS added to the cytoplasmic side of the channel (n=4). This was reversible upon addition of 2 mM DTT (0.11±0.04). These findings support direct HNO-RyR2 interaction likely via a reversible reaction with thiol groups in the protein.

[3] = molecular target: T2, SERCA2a (Canis lupus familiaris, UniProt O46674); assay: Ca-ATPase partial reactions and Vmax in cardiac SR vesicles from normal and failing dog hearts; assay type: biochemical; settings: for stimulation of maximal Ca-ATPase activity compared to control / spontaneous E2P hydrolysis rate: 0.25 mM AS; for stimulation of maximal Ca-ATPase activity compared to control: 2.5 mM oxalate
T2 construct: sealed cardiac sarcoplasmic reticulum (CSR) membrane vesicles isolated from normal (N) and failing (F); from tissue; host or cells: dog heart, normal and tachy-pacing-induced failing (sealed cardiac SR vesicles)
Method: The effect of AS on Ca-ATPase partial reactions and Vmax was measured in sealed cardiac sarcoplasmic reticulum (CSR) membrane vesicles isolated from normal (N) and failing (F) (tachy-pacing-induced) dog hearts. […] In the presence of 2.5 mM oxalate (Ca^2+-loading conditions), 0.25 mM AS stimulated maximal Ca-ATPase activity in N and F CSR (4% vs. 9% compared to control). […] This relieves back inhibition of SERCA2a by the Ca^2+ transport gradient, increasing Vmax.

T1 sequence (E9Q401 whole entry): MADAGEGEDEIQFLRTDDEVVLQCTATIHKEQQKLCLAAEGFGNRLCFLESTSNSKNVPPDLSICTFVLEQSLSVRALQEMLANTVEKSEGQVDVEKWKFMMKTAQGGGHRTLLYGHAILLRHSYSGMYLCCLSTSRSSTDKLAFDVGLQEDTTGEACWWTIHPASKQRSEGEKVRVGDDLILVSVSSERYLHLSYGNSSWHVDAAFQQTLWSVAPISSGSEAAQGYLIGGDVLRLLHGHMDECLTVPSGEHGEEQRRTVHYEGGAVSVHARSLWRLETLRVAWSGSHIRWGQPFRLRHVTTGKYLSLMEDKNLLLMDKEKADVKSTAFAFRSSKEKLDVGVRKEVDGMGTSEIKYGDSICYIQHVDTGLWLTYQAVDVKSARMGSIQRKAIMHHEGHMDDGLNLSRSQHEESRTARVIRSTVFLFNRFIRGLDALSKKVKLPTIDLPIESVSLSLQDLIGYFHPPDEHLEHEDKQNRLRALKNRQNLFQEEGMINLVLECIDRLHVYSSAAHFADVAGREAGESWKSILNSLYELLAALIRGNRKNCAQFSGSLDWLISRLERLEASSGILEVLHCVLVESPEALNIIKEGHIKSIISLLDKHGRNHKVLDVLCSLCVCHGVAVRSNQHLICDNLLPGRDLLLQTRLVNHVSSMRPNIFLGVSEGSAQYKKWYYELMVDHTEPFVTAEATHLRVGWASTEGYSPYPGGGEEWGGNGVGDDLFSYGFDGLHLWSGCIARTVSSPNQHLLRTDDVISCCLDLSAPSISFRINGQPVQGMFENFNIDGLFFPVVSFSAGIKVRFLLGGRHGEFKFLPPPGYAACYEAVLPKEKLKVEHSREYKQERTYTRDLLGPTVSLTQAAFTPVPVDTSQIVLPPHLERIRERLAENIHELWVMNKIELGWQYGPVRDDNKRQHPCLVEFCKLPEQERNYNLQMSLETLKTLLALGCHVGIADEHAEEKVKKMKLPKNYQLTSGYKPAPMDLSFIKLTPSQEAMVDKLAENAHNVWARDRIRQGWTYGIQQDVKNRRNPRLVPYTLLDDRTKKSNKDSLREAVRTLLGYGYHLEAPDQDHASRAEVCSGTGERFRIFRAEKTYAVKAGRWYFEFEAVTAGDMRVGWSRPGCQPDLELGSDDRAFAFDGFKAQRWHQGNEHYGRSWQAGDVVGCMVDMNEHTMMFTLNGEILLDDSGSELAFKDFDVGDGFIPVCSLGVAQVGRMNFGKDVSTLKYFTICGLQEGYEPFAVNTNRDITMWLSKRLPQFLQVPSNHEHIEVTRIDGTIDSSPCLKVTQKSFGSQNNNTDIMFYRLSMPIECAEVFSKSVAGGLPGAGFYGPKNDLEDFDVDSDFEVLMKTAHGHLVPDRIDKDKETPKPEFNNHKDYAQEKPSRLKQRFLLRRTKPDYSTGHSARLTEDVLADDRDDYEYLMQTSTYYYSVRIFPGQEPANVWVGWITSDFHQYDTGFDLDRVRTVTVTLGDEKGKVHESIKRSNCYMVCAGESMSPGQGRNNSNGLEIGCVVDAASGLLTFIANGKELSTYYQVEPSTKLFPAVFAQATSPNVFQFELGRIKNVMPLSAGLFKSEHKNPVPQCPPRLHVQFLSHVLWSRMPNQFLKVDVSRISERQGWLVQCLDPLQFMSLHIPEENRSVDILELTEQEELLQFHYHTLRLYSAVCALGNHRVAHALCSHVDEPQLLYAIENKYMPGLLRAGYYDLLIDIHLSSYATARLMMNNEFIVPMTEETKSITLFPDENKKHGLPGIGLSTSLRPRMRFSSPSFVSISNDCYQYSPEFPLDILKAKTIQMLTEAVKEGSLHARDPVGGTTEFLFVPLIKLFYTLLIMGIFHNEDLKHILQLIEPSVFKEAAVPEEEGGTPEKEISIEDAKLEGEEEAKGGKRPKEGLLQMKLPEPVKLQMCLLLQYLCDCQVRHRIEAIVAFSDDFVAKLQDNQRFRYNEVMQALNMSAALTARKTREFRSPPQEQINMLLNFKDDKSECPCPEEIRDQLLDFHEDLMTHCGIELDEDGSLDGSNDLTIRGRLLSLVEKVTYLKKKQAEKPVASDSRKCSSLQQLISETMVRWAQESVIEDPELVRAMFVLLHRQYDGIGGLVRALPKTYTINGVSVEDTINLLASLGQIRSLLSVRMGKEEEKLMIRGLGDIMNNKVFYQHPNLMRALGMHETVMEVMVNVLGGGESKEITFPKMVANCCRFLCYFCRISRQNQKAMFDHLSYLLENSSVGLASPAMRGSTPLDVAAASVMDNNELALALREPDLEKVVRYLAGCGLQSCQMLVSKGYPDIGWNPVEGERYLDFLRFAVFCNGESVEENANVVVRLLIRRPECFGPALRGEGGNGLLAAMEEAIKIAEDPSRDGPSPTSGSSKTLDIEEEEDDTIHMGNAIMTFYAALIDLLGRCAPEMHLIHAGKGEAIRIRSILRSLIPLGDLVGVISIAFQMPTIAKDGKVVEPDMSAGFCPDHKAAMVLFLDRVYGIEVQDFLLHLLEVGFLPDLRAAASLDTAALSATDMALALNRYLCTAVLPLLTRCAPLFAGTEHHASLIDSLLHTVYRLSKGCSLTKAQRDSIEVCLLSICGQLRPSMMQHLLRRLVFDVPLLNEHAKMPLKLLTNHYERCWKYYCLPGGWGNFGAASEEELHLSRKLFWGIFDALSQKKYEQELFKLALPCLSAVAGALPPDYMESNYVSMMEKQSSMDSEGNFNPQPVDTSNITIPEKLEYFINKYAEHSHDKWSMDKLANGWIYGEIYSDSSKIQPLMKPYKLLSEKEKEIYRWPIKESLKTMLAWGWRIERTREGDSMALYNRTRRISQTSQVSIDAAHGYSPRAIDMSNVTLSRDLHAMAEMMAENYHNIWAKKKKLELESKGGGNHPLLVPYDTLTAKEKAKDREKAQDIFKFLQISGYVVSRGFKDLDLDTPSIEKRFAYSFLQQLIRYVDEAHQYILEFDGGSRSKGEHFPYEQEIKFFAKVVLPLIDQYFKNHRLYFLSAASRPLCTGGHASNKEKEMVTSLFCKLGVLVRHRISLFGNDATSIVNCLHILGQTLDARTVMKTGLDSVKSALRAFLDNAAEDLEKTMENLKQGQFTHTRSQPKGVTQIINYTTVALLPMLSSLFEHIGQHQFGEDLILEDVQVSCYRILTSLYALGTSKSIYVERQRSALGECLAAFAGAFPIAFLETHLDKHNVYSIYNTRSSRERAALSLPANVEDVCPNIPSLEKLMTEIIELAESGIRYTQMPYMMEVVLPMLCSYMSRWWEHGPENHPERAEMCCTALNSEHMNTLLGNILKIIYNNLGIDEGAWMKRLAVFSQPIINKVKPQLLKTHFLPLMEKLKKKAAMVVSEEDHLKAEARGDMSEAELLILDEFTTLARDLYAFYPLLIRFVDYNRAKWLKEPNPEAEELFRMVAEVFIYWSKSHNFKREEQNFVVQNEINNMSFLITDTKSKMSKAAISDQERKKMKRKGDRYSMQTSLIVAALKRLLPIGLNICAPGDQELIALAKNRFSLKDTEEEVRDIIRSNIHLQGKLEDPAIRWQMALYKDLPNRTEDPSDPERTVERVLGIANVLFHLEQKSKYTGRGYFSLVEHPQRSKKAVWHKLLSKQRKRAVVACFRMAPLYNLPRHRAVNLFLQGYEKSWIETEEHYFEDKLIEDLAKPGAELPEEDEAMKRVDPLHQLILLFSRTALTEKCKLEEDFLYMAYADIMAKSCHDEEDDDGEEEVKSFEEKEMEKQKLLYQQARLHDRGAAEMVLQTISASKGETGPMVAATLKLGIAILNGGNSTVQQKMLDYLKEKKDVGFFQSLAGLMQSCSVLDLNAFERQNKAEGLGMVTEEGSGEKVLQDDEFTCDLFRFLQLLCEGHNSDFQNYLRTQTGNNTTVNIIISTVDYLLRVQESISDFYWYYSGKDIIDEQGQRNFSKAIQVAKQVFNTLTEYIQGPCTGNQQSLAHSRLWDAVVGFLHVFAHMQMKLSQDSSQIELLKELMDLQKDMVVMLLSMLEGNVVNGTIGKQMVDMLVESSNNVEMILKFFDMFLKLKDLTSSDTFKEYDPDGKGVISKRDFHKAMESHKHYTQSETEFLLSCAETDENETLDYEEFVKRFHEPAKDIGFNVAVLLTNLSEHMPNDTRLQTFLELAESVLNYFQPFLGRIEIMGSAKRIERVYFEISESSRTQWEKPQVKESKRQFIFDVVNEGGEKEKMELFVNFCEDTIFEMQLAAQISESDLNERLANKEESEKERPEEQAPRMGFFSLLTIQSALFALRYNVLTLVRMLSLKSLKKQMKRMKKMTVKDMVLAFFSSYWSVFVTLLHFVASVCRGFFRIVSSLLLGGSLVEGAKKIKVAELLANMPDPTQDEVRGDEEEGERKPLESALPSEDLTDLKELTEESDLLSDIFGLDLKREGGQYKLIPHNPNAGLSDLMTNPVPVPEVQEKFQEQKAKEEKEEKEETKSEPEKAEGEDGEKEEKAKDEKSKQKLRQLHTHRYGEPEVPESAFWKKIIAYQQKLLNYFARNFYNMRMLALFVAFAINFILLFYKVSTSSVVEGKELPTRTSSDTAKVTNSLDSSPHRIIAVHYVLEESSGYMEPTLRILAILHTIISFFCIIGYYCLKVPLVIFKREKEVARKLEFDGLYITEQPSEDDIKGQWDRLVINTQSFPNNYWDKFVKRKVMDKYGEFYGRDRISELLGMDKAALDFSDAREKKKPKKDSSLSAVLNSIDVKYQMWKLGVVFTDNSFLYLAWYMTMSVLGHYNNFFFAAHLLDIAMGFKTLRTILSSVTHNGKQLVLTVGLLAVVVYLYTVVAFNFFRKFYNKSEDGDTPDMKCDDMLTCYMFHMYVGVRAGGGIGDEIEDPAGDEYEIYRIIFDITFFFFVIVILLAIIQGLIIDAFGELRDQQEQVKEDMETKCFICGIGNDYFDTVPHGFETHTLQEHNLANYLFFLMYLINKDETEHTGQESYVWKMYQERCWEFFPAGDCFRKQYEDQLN

open probability of the channel (Po) ([2]; 0.1 mM AS, cis side): 0.25±0.05 | open probability of the channel (Po) ([2]; 0.3 mM AS, cytoplasmic side): 0.46±0.07 | open probability of the channel (Po) ([2]; 1.0 mM AS, cis side): 0.69±0.11 | Po of AS-activated channels after DTT ([2]; 2 mM DTT added to cis side): 0.11±0.04 | unitary channel conductance ([2]; AS 0.1 to 1 mM): without altering | Vmax stimulation in presence of Ca2+ ionophore A23187 ([3]; AS with A23187): abolished | stimulation of maximal Ca-ATPase activity compared to control ([3]; F CSR): 9% | stimulation of maximal Ca-ATPase activity compared to control ([3]; N CSR): 4% | Vmax stimulation ([3]; N CSR, AS, without oxalate): 27% | spontaneous E2P hydrolysis rate ([3]; failing (F) CSR, without AS 11): 111 s⁻¹ | spontaneous E2P hydrolysis rate ([3]; normal (N) CSR, without AS 12): 76 s⁻¹
Compound: [Na+].[Na+].[O-][N+]([O-])=NO [AS, Angeli's salt]
effect on end-diastolic pressure-volume relationship (EDPVR) [1]: declined significantly
